Cytotoxicity data for 104 molecules are collected here from ChEMBL document CHEMBL3507680, “University of Dundee, Gates Library screen for HepG2 cell viability”.

This data set can be described thus: Human HepG2 cell viability assay in 384 well format. The class given is toxicity, cell-based. Also on record: dose 125 nL, time 70.5 hour; concentration not given beside the values. The following applies: HepG2 cells, read-out: Inhibition.
As for `Cc1c(Cl)cccc1NC(=O)c1nc[nH]n1`, the cytotoxicity at 70.5 h is 19.3%.

As for `CC(C)c1nccn1-c1cncc(C2CCCN2Cc2cccnc2)n1` (centres undefined), the cytotoxicity at 70.5 h was -1.69%. Under `Cc1ccc(CN2CCc3nc(C(C)C)nc(O)c3CC2)s1` stands -4.74%; under `CN(C)C(=O)c1c[nH]nc1C1CCN(S(=O)(=O)c2ccccc2)CC1`, -1.91%. Take `NC(=O)c1cn[nH]c1C1CCCN1C(=O)c1cnccn1` (centres undefined): the cytotoxicity at 70.5 h is -10.1%.

As for `Cc1c(Br)cccc1NC(=O)N(C)CCO`, the cytotoxicity at 70.5 h is -14.7%. Under `CCS(=O)(=O)CCCN1CCSCC1c1ccc(Cl)cc1` (centres undefined) stands -13.2%. Consider `O=C(COc1cc(Cl)cc(Cl)c1)NCc1nncn1C1CC1`, for which the cytotoxicity at 70.5 h was -8.34%. For `COc1ccc(OC)c(S(=O)(=O)NC(=O)C(C)OC)c1` (centres undefined), the cytotoxicity at 70.5 h is -13.3%. Under `Cc1ccccc1S(=O)(=O)Cc1nsc(N(C)C)n1` stands 0.131%; under `Cc1ccc(S(=O)(=O)Cc2nsc(N(C)C)n2)c(C)c1`, -6.24%; under `Cc1ccnc2c1NC(=O)CN2C(=O)CCc1ccccc1`, -13.4%. To `Cc1ccnc2c1NC(=O)CN2C(=O)CCc1cccs1` belongs -5.29%; to `COc1ccc(S(=O)(=O)NC(=O)C(C)OC)c(OC)c1` (centres undefined), -2.74%; to `Cc1cc(CNC(=O)c2cc(NC(=O)C(C)C)ccc2Cl)no1`, 13.5%. To `Cn1cccc1CNCC1CCCn2cc(C(C)(C)C)nc21` (centres undefined) belongs 5.68%; to `CCN(C)S(=O)(=O)N1CCC(C(O)c2ccc(F)cc2)CC1` (centres undefined), -2.3%. Turning to `CC(CO)NS(=O)(=O)c1cccc(C(C)C)c1` (centres undefined), the cytotoxicity at 70.5 h is -9%. To `CCN(CC(=O)NC(C)(C)C)Cc1cccc2c1OCCO2` belongs -11.6%; to `CC(C)C(C(=O)N(C)C)c1cccc(Cl)c1` (centres undefined), -11%. Take `CCCc1noc(C(C)N2CC(n3cccn3)C2)n1` (centres undefined): the cytotoxicity at 70.5 h came to 6.9%. To `Cc1ccn(Cc2nc(C(C)OCC(C)C)no2)c(=O)c1` (centres undefined) belongs 3.64%; to `Cc1ccnc(NC(=O)c2c(C)oc(C)c2C)c1`, 9.9%. Under `CC(C)(NC(=O)NCc1cccc(Br)c1)C(=O)O` stands -9.51%; under `COc1ccc(OCCN(C)S(=O)(=O)N2CCOCC2)cc1`, -6.12%. To `CC(C(=O)N1CCOCC1)S(=O)(=O)Cc1nc(C(C)(C)C)no1` (centres undefined) belongs -9.65%; to `Cc1ccc(OCCN(C)S(=O)(=O)N2CCOCC2)cc1`, -0.648%; to `O=S(=O)(CCCn1cncn1)Cc1cccc(F)c1`, -9.13%. Take `CC(C(=O)N1CCCC1)S(=O)(=O)Cc1nc(C(C)(C)C)no1` (centres undefined): the cytotoxicity at 70.5 h was -8.31%. As for `Cc1cc(N(C)C)nc(N(C)Cc2csc(C)n2)n1`, the cytotoxicity at 70.5 h is -7.95%. To `Cc1cnn(CC2CN(c3ncnc4c3CCC4)CCO2)c1` (centres undefined) belongs -1.52%; to `CC(NC(N)=O)C(=O)N(C)Cc1cccc(C(F)(F)F)c1` (centres undefined), 10.7%. To `O=C(COCC1CC1)Nc1cc(S(=O)(=O)NC2CC2)ccc1F` belongs -2.2%; to `CSc1ccsc1C(=O)NCCNC(=O)C1CC1`, -6.91%; to `CCC(CC)c1cc(C(=O)N2CCN(C(C#N)C(C)C)CC2)on1` (centres undefined), -6.08%. Under `CCC(C)(C)C1CCCN1C(=O)c1coc(S(=O)(=O)NC)c1` (centres undefined) stands 6.9%; under `CN1CCOC(C(=O)Nc2nc(-c3ccc(Cl)cc3)n[nH]2)C1` (centres undefined), 4.4%. Take `CC(Cc1ccco1)NS(=O)(=O)N1CCCCC1` (centres undefined): the cytotoxicity at 70.5 h is -6.18%. To `CC1CCN(S(=O)(=O)NC(C)Cc2ccco2)CC1` (centres undefined) belongs -4.62%; to `CC(C)Cc1nc(CS(=O)(=O)C(C)C(=O)N2CCOCC2)no1` (centres undefined), -7.75%.

In the case of `CS(=O)(=O)c1ccc(NC(=O)NC2(c3ccccc3)CCC2)cc1`, the cytotoxicity at 70.5 h is -8.88%. Under `CCNC(=O)CNC(=O)c1nc(C2CC2)n(-c2ccccc2Cl)n1` stands -2.36%; under `CS(=O)(=O)NC(c1ccccc1)c1ccc2c(c1)CCCO2` (centres undefined), -6.34%.

In the case of `COCCN(CCOC)c1ncc(C#N)cc1Cl`, the cytotoxicity at 70.5 h is -15.8%. To `Cc1ccc(C2CSCCN2C(=O)NCc2cccnc2)cc1` (centres undefined) belongs -10.1%; to `CC(O)CCN(C)C(=O)Nc1cccc(F)c1` (centres undefined), -8.99%. Under `COc1ccc(-n2cc(CNC(=O)c3cc[nH]n3)nn2)cc1` stands -3.5%; under `COc1ccc(-n2cc(CNC(=O)c3cscn3)nn2)cc1`, -17.7%. To `Cc1ccc(C2CN(CCS(=O)(=O)C(C)C)CCO2)c(C)c1` (centres undefined) belongs -1.77%; to `CC(O)CCN(C)C(=O)Nc1cc(F)cc(Br)c1` (centres undefined), 1.72%; to `Cc1ccccc1CCCN1CCS(=O)(=O)CC1C` (centres undefined), -6.59%. Regarding `CCCc1nc(CN(CCO)Cc2cc(Br)ccc2F)no1`, the cytotoxicity at 70.5 h was -13.1%. Consider `CC(C)N1C(=O)CN(CCOCCO)CC1(C)C`, for which the cytotoxicity at 70.5 h is -1.37%. To `COCCN(Cc1ccco1)c1ncc(C#N)cc1Cl` belongs 20.3%; to `Cc1nc(C)n(CC2CCCN2Cc2cn3ccccc3c2C#N)n1` (centres undefined), -6.14%. Turning to `O=C(CN1CCCC(c2noc(C3CC3)n2)C1)N1CCCC1` (centres undefined), the cytotoxicity at 70.5 h worked out at 4.7%. Regarding `CC(SCCC(=O)NC(N)=O)c1cccc(F)c1` (centres undefined), the cytotoxicity at 70.5 h was found to be 15.9%. Under `CC(c1ccccc1)N(C)C(=O)CN1CCN(c2cnccn2)CC1` (centres undefined) stands -16.2%; under `COCc1nc(C(=O)NS(=O)(=O)c2ccc(OC)c(C)c2)cs1`, -13.2%. With `CN1CCCC(N(C)C(=O)c2ccc(NC(=O)c3ccc[nH]3)cc2)C1` (centres undefined), the cytotoxicity at 70.5 h is -0.19%. On to `O=C(NCc1nnc2ccccn12)N1CCOC(c2cccs2)C1` (centres undefined), for which the cytotoxicity at 70.5 h was -8.39%.

With `O=C(NCc1nnc2ccccn12)N1CCOC(c2ccsc2)C1` (centres undefined), the cytotoxicity at 70.5 h is -14.6%. Under `CC(CNC(=O)CCCc1ccccn1)c1ccsc1` (centres undefined) stands -12.4%. Under `CCN(CC)C(CNC(=O)CCc1nc(C(C)C)no1)c1ccco1` (centres undefined) stands -2.56%; under `N#Cc1ccc(Cl)cc1N1CCC(OC2CCOCC2)CC1`, -3.88%.

As for `CC(=O)N1Cc2ccccc2C[C@H]1C(=O)N(C)Cc1ccccn1`, the cytotoxicity at 70.5 h was -14.8%. Under `COc1ccccc1C(N)CC(C)C` (centres undefined) stands -8.84%; under `CCCOc1ccccc1C(N)CC(C)C` (centres undefined), -9.52%. Take `CN(Cc1c(F)cccc1Cl)C(=O)c1cnn(CCN2CCCCC2)c1`: the cytotoxicity at 70.5 h was determined as 18.7%.

As to `Cc1cc(C2CCCN2C(=O)CN2CCc3ccccc32)on1` (centres undefined), the cytotoxicity at 70.5 h is -0.619%. Under `CN1CCC(C(=O)N2CCC(=Cc3cccc(F)c3)CC2)CC1=O` (centres undefined) stands 16.2%; under `CC1COCCN1C(=O)c1cnccn1` (centres undefined), 7.55%. Turning to `CCc1ncnc(N2CCOCC2CCO)c1F` (centres undefined), the cytotoxicity at 70.5 h is -2.27%.

Consider `Cc1nc(CCCNC(=O)c2c(F)cccc2Br)n[nH]1`, for which the cytotoxicity at 70.5 h stood at 3.62%. Under `NC(=O)c1cnn2c1NCC(CNCC1(c3ccccc3)CCCC1)C2` (centres undefined) stands 0.136%; under `Cc1cc(C(=O)Nc2cc(C3CC3)n[nH]2)c2c(C)nn(C)c2n1`, -12.4%. Under `c1ccc(C2(NCC3CNc4ccnn4C3)CCC2)cc1` (centres undefined) stands -2.65%; under `CC1CCC(NS(=O)(=O)CC(=O)NC(C2CC2)C2CC2)CC1` (centres undefined), 23.5%; under `CC1CCC(NS(=O)(=O)CC(=O)NCC2CCC2)CC1` (centres undefined), -13.2%. Regarding `CC1CCC(NS(=O)(=O)CC(=O)NC2(C(N)=O)CCCC2)CC1` (centres undefined), the cytotoxicity at 70.5 h was -7.07%. Under `Cc1cccc(OCCNC(=O)Cn2ccc(C)cc2=O)c1` stands -8.95%; under `CC(C)c1ncc2c(n1)CN(c1ncnc3[nH]ccc13)CC2`, 17.1%; under `CC(C)C(NC(=O)Cc1ccccc1)C(=O)NCc1ccc(O)nc1` (centres undefined), -11.4%. To `CCS(=O)(=O)CC(C)N(C)C(=O)COc1ccccc1C#N` (centres undefined) belongs -15.4%; to `CCC(=O)NC(c1ccc(C)cc1)c1cccc(S(C)(=O)=O)c1` (centres undefined), -11.9%. In the case of `CCNC(=O)C1CCCN(c2ccc3ccc(F)cc3n2)C1` (centres undefined), the cytotoxicity at 70.5 h turned out to be 0.815%.

Regarding `Cc1cccc(OCCCNC(=O)Cn2ccc(C)cc2=O)c1`, the cytotoxicity at 70.5 h is -6.82%. In the case of `O=C(Nc1cc[nH]n1)c1ccc(COCC(F)(F)F)cc1`, the cytotoxicity at 70.5 h is -4%. Under `CC(C)C(C)N(C(=O)Cn1nc2n(c1=O)CCCCC2)C1CC1` (centres undefined) stands -11.4%. Under `Cc1cc(C(=O)NC2CCCOc3cc(Cl)ccc32)n(C)n1` (centres undefined) stands -5.69%; under `O=C(NC1CCCOc2cc(Cl)ccc21)c1ccc(=O)[nH]n1` (centres undefined), -13.7%; under `Cc1nc(C)c(S(=O)(=O)NC(=O)c2ccoc2)s1`, -13%.

For the molecule `NC(=O)CCC1CCCN(c2ccnc3cc(F)ccc23)C1` (centres undefined), the cytotoxicity at 70.5 h was -12.1%. In the case of `Cc1nc(C)c(S(=O)(=O)NC(=O)c2sccc2C)s1`, the cytotoxicity at 70.5 h was -14.3%. To `COCCOc1ccc(CNC2CCc3ncnn3C2)cc1OC` (centres undefined) belongs -9.82%. Under `CNc1snc(C)c1C(=O)NC(C)CC(=O)c1cccs1` (centres undefined) stands -14.5%.

`CCc1ncnc(N2CCOCC2C2CC2)c1F` (centres undefined): the cytotoxicity at 70.5 h was -15.6%.

As for `Cc1ccc(N2CCCN(C(=O)CCCn3ccnc3C)CC2)nn1`, the cytotoxicity at 70.5 h was -0.226%. Under `COC(=O)c1ccc(N(C(=O)c2cccnc2C)C(C)C)c(C)c1` stands -7.81%; under `N#CCCn1cnc2c(Br)cccc2c1=O`, -14.7%.

As for `O=C(NCc1ccc(OCC2CC2)nc1)C1COc2ccccc2O1` (centres undefined), the cytotoxicity at 70.5 h is -5.51%. To `CC(C)C(C)NC(=O)Nc1cccc(OCC#N)c1` (centres undefined) belongs -8.7%.

Consider `Cc1cccnc1NC(=O)c1ccc(F)c(S(=O)(=O)N2CCC2)c1`, for which the cytotoxicity at 70.5 h was -19.3%. To `O=C(Nc1ccccn1)c1cncc(C2CCNCC2)n1` belongs -6.06%.
